Our source for the IC50 values is patent US7872045B2, “Combination therapy for glaucoma treatment” (Allergan, Inc., priority 2001, dated 2011).

Molecules are shown by their SMILES. Bounds are passed on as bounds.

Test [1] addresses T1, human EP2 receptor (hEP2) (Homo sapiens, UniProt P43116).
T1 construct: expressed in transfected cells; plasma membrane fraction
Kind of test: Radioligand binding competition vs [3H]PGE2, human recombinant EP2 receptor. The settings on record: [3H]PGE2 competition, plasma membranes of HEK-293 stable transfectants, 60 min 25° C. The method, then:
(§1) Human Recombinant EP1, EP2, EP4, and FP Receptors: Stable Transfectants
(§2) HEK-293 cells stably expressing the human or feline FP receptor, or EP1, EP2, EP3, or EP4 receptors were washed with TME buffer, scraped from the bottom of the flasks, and homogenized for 30 sec using a Brinkman PT 10/35 polytron. TME buffer was added to achieve a final 40 ml volume in the centrifuge tubes (the composition of TME is […]; ION HCl is added to achieve a pH of 7.4).
(§3) The cell homogenate was centrifuged at 19000 r.p.m. for 20 min at 4° C. using a Beckman Ti-60 rotor. The resultant pellet was resuspended in TME buffer to give a final 1 mg/ml protein concentration, as determined by Biorad assay. Radioligand binding competition assays vs. [^3H-]17 -phenyl PGF2α (5 nM) were performed in a 100 μl volume for 60 min. Binding reactions were started by adding plasma membrane fraction. The reaction was terminated by the addition of 4 ml ice-cold TRIS-HCl buffer and rapid filtration through glass fiber GF/B filters using a Brandel cell harvester. The filters were washed 3 times with ice-cold buffer and oven dried for one hour. Non-specific binding was determined with 10 uM unlabeled 17 -phenyl PGF2α.
(§4) [^3H-] PGE2 (5 nM; specific activity 180 Ci mmol) was used as the radioligand for EP receptors. Binding studies employing EP1, EP2, EP3, EP4 were performed in duplicate in at least three separate experiments. A 200 μl assay volume was used. Incubations were for 60 min at 25° C. and were terminated by the addition of 4 ml of ice-cold 50 mM TRIS-HCl, followed by rapid filtration through Whatman GF/B filters and three additional 4 ml washes in a cell harvester (Brandel). Non-specific binding determined with 10^−5M of unlabeled PGE2,.
(§5) Plasmids encoding the human EP1, EP2, EP4, and FP receptors were prepared by cloning the respective coding sequences into the eukaryotic expression vector pCEP4 (Invitrogen). The pCEP4 vector contains an Epstein Barr virus (EBV) origin of replication, which permits episomal replication in primate cell lines expressing EBV nuclear antigen (EBNA-1). Similarly, competitive experiments were caried out using [3H]17-phenylPGF2α at 5 nM in the presence of test ligands at various concentrations. Also non-specific binding was, determined in the presence of excess unlabeled PGF2α (10^−5 M).
(§6) It also contains a hygromycin resistance gene that is used for eukaryotic selection. The cells employed for stable transfection were human embryonic kidney cells (HEK-293) that were transfected with and express the EBNA-1 protein. These HEK-293-EBNA cells (Invitrogen) were grown in medium containing Geneticin (G418) to maintain expression of the EBNA-1 protein. HEK-293 cells were grown in DMEM with 10% fetal bovine serum (FBS), 250 μg ml G418 (Life Technologies) and 200 μg ml^−1 gentamicin or penicillin/streptomycin.
(§7) For transfection, the cells were grown to 50-60% confluency on 10 cm plates. The plasmid pCEP4 incorporating cDNA inserts for the respective human prostanoid receptor (20 μg) was added to 500 μl of 250 mM CaCl2. HEPES buffered saline ×2 (2×HBS, 280 mM NaCl, 20 mM HEPES acid, 1.5 mM Na2 HPO4, pH 7.05-7.12) was then added dropwise to a total of […], with continuous vortexing at room temperature. After 30 min, 9 ml DMEM were added to the mixture. The DNA/DMEM/calcium phosphate mixture was then added to the cells, which had been previously rinsed with 10 ml PBS. The cells were then incubated for 5 hr at 37° C. in humidified 95% air/5% CO2. The calcium phosphate solution was then removed and the cells were treated with 10% glycerol in DMEM for 2 min. The glycerol solution was then replaced by DMEM with 10% FBS. The cells were incubated overnight and the medium was replaced by DMEM/10% FBS containing 250 μg ml^−1 G418 and penicillin/streptomycin. The following day hygromycin B was added to a final concentration of 200 μg ml^−1. […]

Test [2] has as its target T2, human EP3 receptor (hEP3, D isoform) (Homo sapiens, UniProt P43115).
T2 construct: expressed in transfected cells; host or cells: COS-7 cells, transient transfection with pcDNA3 (lipofectin); plasma membrane fraction
T2 sequence (P43115 1-374 isoform P43115-4): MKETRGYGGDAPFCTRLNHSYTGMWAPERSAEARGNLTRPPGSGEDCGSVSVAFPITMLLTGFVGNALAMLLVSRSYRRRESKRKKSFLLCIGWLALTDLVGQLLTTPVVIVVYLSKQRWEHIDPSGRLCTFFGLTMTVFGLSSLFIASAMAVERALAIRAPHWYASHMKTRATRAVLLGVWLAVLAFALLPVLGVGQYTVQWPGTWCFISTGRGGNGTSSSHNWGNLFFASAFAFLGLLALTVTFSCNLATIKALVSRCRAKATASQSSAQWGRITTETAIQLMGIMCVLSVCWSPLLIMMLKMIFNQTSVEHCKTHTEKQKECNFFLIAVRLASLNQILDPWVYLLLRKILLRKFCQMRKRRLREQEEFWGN
Kind of test: Radioligand binding competition vs [3H]PGE2, human recombinant EP3 receptor. The conditions noted are these: [3H]PGE2 competition, plasma membranes of transfected cells (COS-7 transient; HEK-293 also named), 60 min 25° C. As for the experimental part:
as §2, §4
Human Recombinant EP3 and TP Receptors: Transient Transfectants.
Plasmids encoding the human EP3 (D isoform) or TP receptor were prepared by cloning the respective coding sequences into a pcDNA3 vector (Invitrogen). COS-7 cells were transfected with pcDNA3 containing cDNA encoding the EP3 or TP receptor by employing the lipofectin method, according to the manufacturers instructions (Gibco). For radioligand binding studies, cells were harvested two days after transfection.
Radioligand binding studies on plasma membrane fractions prepared from cells were performed as follows. Cells washed with TME buffer were scraped from the bottom of the plates and homogenized for 30 sec using a Brinkman PT 10/35 polytron. TME buffer was added as necessary to achieve a 40 ml volume in the centrifuge tubes. TME is comprised of 50 mM TRIS base, 10 mM MgCl2, 1 mM EDTA; pH 7.4 is achieved by adding 1 N HCl. The cell homogenate was centrifuged at 19,000 rpm for 20-25 min at 4° C. using a Beckman Ti-60 or T ? -70 rotor. The pellet was then resuspended in TME buffer to provide a final protein concentration of 1 mg/ml, as determined by Bio-Rad assay. Radioligand binding assays were performed in a 100 μl or 200 μl volume.
The binding of [^3H] PGE2 (specific activity 165 Ci/mmol) was determined in duplicate and, in at least 3 separate experiments. Incubations were for 60 min at 25° C. and were terminated by the addition of 4 ml of ice-cold 50 mM TRIS-HCl followed by rapid filtration through Whatman GF/B filters and three additional 4 ml washes in a cell harvester (Brandel). Competition studies were performed using a final concentration of 2.5 or 5 nM [H] PGE2 and non-specific binding was determined with 10^−5 M unlabelled PGE2.

Test [3] concerns the target T3, human EP4 receptor (hEP4) (Homo sapiens, UniProt P35408).
T3 construct: expressed in transfected cells; plasma membrane fraction
Briefly: Radioligand binding competition vs [3H]PGE2, human recombinant EP4 receptor. The settings on record: [3H]PGE2 competition, plasma membranes of HEK-293 stable transfectants, 60 min 25° C. As for the experimental part:
as §1, §2, §3, §4, §5, §6, §7

T3 sequence (P35408 whole entry): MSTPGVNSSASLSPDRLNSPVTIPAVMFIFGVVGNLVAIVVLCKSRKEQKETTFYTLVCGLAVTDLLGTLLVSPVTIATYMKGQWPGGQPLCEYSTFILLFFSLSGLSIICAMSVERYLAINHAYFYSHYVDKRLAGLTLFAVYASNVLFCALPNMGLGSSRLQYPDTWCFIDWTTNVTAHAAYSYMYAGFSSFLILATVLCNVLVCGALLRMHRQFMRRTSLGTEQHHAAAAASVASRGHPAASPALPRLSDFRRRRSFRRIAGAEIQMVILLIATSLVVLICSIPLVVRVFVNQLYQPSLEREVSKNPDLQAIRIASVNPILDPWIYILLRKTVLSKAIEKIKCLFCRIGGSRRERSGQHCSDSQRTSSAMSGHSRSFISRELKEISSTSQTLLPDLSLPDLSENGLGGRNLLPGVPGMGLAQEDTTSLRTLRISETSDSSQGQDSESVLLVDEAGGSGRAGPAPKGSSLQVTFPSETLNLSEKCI
T1 sequence (P43116 whole entry): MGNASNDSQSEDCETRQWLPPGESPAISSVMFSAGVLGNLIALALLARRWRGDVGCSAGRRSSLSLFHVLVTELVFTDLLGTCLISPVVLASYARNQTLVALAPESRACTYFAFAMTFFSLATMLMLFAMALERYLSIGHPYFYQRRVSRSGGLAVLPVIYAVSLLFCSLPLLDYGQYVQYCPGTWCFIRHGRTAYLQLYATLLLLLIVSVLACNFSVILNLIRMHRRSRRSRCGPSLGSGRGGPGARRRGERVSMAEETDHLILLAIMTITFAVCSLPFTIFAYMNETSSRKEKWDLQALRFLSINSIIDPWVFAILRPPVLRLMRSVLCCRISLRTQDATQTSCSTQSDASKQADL

For orientation: IC50 means the concentration needed to halve the response being measured. With `O=C(O)CSCCCS[C@H]1C(=O)C[C@@H](O)[C@@H]1/C=C/C(O)CCc1ccc2ccccc2c1` (single isomer, unassigned) [Example 10H], the IC50 is over 10000 nM in test [1], over 10000 nM in test [2] and 450 nM in test [3].
With `O=C(O)CSCCCS[C@H]1C(=O)C[C@@H](O)[C@@H]1/C=C/C(O)CCc1ccc2ccccc2c1` (single isomer, unassigned) [Example 10L], the IC50 in test [1] is over 10000 nM; in test [2], 8300 nM; in test [3], 19.5 nM.
The corresponding values for `O=C(O)CSCCCS[C@H]1C(=O)C[C@@H](O)[C@@H]1/C=C/C(O)Cc1ccc2ccccc2c1` (single isomer, unassigned) [Example 22L] are over 10000 nM, over 10000 nM and 6.2 nM.
The corresponding values for `COC(=O)CSCCCS[C@H]1C(=O)C[C@@H](O)[C@@H]1/C=C/C(O)Cc1csc2ccccc12` (single isomer, unassigned) [Example 24L] are 9300 nM, over 10000 nM and 30 nM.
On to `O=C(O)CSCCCS[C@H]1C(=O)C[C@@H](O)[C@@H]1/C=C/C(O)Cc1csc2ccccc12` (single isomer, unassigned) [Example 25H], for which the values for the IC50 in test [1] and in test [3] were over 10000 nM and 69 nM, respectively.
As for `O=C(O)CSCCCS[C@H]1C(=O)C[C@@H](O)[C@@H]1/C=C/C(O)Cc1csc2ccccc12` (single isomer, unassigned) [Example 25L], the half-inhibitory concentration (IC50) in test [1] is 2200 nM; in test [2], over 10000 nM; in test [3] it was 5 nM.
For the molecule `COC(=O)CSCCCS[C@H]1C(=O)C[C@@H](O)[C@@H]1/C=C/[C@@H](O)CCc1cc2ccccc2s1` [Example 13L, {3-[(1R,2S,3R)-3-Hydroxy-2-((S)-(E)-3-hydroxy-5-(benzothienyl)pent-1-enyl)-5-oxocyclopentylsulfanyl]propylsulfanyl}acetic acid methyl ester], the IC50 in test [1] was over 10000 nM; in test [2], 7200 nM; in test [3], 93 nM.
The corresponding values for `O=C(O)CSCCCS[C@H]1C(=O)C[C@@H](O)[C@@H]1/C=C/[C@@H](O)CCc1cc2ccccc2s1` [Example 14H, {3-[(1R,2S,3R)-3-Hydroxy-2-((S)-(E)-3-hydroxy-5-(benzothienyl)pent-1-enyl)-5-oxocyclopentylsulfanyl]propylsulfanyl}acetic acid] are over 10000 nM, over 10000 nM and 27 nM.
For `O=C(O)CSCCCS[C@H]1C(=O)C[C@@H](O)[C@@H]1/C=C/[C@@H](O)CCc1cc2ccccc2s1` [Example 14L, {3-[(1R,2S,3R)-3-Hydroxy-2-((S)-(E)-3-hydroxy-5-(benzothienyl)pent-1-enyl)-5-oxocyclopentylsulfanyl]propylsulfanyl}acetic acid], the IC50 is at least 10000 nM in test [1], over 10000 nM in test [2] and 13 nM in test [3].
Regarding `CC(O)(/C=C/[C@H]1[C@H](O)CC(=O)[C@@H]1SCCCSCC(=O)O)Cc1ccc2ccccc2c1` (stereo partly drawn) [Example 31L, {3-[(1R,2S,3R)-3-Hydroxy-2-((E)-3-hydroxy-3-methyl-4-naphthalen-2-yl-but-1-enyl)-5-oxocyclopentylsulfanyl]propylsulfanyl}acetic acid], the IC50 in test [2] amounted to 9300 nM; in test [3], 900 nM.
Regarding `C[C@@](O)(/C=C/[C@H]1[C@H](O)CC(=O)[C@@H]1SCCCSCC(=O)O)CCc1cc2ccccc2s1` [Example 34H, {3-[(1R,2S,3R)-3-Hydroxy-2-((S)-(E)-3-(hydroxy)-3-(methyl)-5-(benzothienyl)pent-1-enyl)-5-oxocyclopentylsulfanyl]propylsulfanyl}acetic acid], the IC50 was over 10000 nM in test [1], over 10000 nM in test [2] and 32 nM in test [3].
For `C[C@@](O)(/C=C/[C@H]1[C@H](O)CC(=O)[C@@H]1SCCCSCC(=O)O)CCc1cc2ccccc2s1` [Example 34L, {3-[(1R,2S,3R)-3-Hydroxy-2-((S)-(E)-3-(hydroxy)-3-(methyl)-5-(benzothienyl)pent-1-enyl)-5-oxocyclopentylsulfanyl]propylsulfanyl}acetic acid], the IC50 in test [2] was over 10000 nM; in test [3], 68 nM.
